Test results reported in ChEMBL document CHEMBL3244199, “6beta-[N,N-Bis(2-chloroethyl)amino]-17-(cyclopropylmethyl)-4,5alpha-epoxy-3,14-dihydroxymorphinan(chlornaltrexamine) a potent opioid receptor alkylating agent with ultralong narcotic antagonist actitivty” (J Med Chem, 1978).
Active and inactive are the calls of the source. The rule behind the calls is not given here.

Tests used:
Mus musculus [1] = assay: Toxicity in mouse at 4.8 nmol, icv measured within 1.5 hrs post-drug administration; type: organism-based; conditions: in vivo, icv_or_intrathecal
[2] = Toxicity in mouse assessed as animal death at 2.4 nmol, icv; type: organism-based; conditions: in vivo, icv or intrathecal, read-out: Activity
Mus musculus [3] = assay: Residual inhibition of morphine-induced analgesia in mouse at 2.4 nmol, icv measured after 2 hrs by tail-flick assay; type: functional, organism-based
[4] = biological target: Opioid receptors; mu/kappa/delta (Homo sapiens) (UniProt P41145+P41143+P35372); conditions: Brain, 1 uM
Sequence of Opioid receptors; mu/kappa/delta (Homo sapiens) (P35372 whole entry, looked up): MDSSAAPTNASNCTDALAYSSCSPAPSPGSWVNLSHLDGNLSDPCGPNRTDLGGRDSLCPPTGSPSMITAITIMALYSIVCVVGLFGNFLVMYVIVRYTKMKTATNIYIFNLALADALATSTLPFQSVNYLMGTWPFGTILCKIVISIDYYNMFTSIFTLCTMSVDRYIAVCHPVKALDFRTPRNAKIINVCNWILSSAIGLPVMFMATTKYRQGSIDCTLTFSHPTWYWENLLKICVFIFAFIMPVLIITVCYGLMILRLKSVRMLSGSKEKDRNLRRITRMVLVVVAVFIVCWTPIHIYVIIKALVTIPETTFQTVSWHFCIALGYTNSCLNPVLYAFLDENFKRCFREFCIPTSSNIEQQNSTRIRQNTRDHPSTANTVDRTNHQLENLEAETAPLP
Sequence of Opioid receptors; mu/kappa/delta (Homo sapiens) (P41143 whole entry, looked up): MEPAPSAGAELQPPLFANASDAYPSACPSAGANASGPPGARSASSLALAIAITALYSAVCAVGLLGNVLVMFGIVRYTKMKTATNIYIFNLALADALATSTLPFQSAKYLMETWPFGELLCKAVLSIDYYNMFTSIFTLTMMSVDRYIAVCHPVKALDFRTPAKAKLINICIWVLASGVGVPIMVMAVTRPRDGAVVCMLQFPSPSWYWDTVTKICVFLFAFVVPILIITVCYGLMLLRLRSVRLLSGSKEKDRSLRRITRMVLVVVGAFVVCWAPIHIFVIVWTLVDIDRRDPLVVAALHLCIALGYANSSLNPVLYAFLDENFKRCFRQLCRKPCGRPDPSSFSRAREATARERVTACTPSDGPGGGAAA
Sequence of Opioid receptors; mu/kappa/delta (Homo sapiens) (P41145 whole entry, looked up): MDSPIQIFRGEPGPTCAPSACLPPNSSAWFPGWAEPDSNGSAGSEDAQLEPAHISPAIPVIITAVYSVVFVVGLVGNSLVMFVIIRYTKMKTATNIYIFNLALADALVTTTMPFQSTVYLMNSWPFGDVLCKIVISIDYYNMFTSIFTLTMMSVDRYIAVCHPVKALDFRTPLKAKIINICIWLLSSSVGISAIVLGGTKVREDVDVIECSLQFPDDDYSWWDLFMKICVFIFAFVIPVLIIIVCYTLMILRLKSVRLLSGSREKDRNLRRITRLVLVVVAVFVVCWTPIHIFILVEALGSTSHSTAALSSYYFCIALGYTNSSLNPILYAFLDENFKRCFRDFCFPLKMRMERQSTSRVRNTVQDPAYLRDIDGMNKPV
Description: Displacement of [3H]naloxone from opioid receptor (unknown origin) in brain homogenate at 1 uM to 10 nM

Structure (SMILES): Cl.Oc1ccc2c3c1O[C@H]1[C@H](N(CCCl)CCCl)CC[C@@]4(O)[C@@H](C2)N(CC2CC2)CC[C@]314
- Activity (Mus musculus [1]): 12%
- mortality [2]: 2%

Structure (SMILES): O=C1CC[C@@]2(O)[C@H]3Cc4ccc(O)c5c4[C@@]2(CCN3CC2CC2)[C@H]1O5
- inhibition (Mus musculus [3]): inactive

Structure (SMILES): CN1CC[C@]23CCCC[C@H]2[C@H]1Cc1ccc(O)cc13
- inhibition [4]: Active
